Measured values taken from PMC10297291 (2023).
Blank lines part the entries; values can stand above or below the molecule they belong to.

Assays:
[1] = tested on: G4 (DNA, G4) AGGGTTAGGGTTAGGGTTAGGG; experiment: thiazole orange displacement (G4-FID), fluorescence; details: 10 mM K+, 90 mM Li+, 10 mM lithium cacodylate pH 7.2, 1 µM TO displaced, 0.25 µM DNA, 3 min equilibration
[2] = tested on: ds26 (DNA, duplex) CAATCGGATCGAATTCGATCCGATTG; experiment: as above; details: 10 mM K+, 90 mM Li+, 10 mM lithium cacodylate pH 7.2, 1 µM TO displaced, 0.25 µM DNA, 3 min equilibration
[3] = tested on: G4 (DNA, G4) AGGGTTAGGGTTAGGGTTAGGG; experiment: thiazole orange displacement (G4-FID), kinetics; details: 10 mM K+, 90 mM Li+; 10 mM lithium cacodylate pH 7.2; 1 µM TO displaced, 0.25 µM DNA; resveratrol concentration not stated

TO shift ([1]; highest concentrations): < 20%
TO shift ([2]; highest concentrations): < 20%
Compound: O=c1cc(-c2ccccc2)oc2cc(O)cc(O)c12

binding [3]: no
Compound: Oc1ccc(/C=C/c2cc(O)cc(O)c2)cc1

binding ([1]; positive control): yes
binding ([2]; positive control): yes
Compound: O=c1c(O)c(-c2ccc(O)c(O)c2)oc2cc(O)cc(O)c12
